Literature values as cited in patent US4833164A (E. I. Du Pont de Nemours and Company, priority 1986, dated 1989).

Tested on: lipoxygenase
Details: Nakadate et al.; Van Wauwe and Goossens; Panganamala et al.

- lipoxygenase inhibitor (literature): lipoxygenase inhibitor
SMILES: Oc1cccc2ccccc12 [Example 1-naphthol, 1-naphthol]
